Active and inactive are the calls of the source. No cut-off for these calls is given here.
Columns and labels:
[1] = (§1) Inhibition of human tryptase-beta after 5 mins by fluorimetric analysis
Homo sapiens [2] = species: Homo sapiens; experiment: Inhibition of human tryptase-beta at 30 uM after 5 mins by fluorimetric analysis
Homo sapiens [3] = species: Homo sapiens; experiment: as §1
Homo sapiens [4] = species: Homo sapiens; experiment: Competitive inhibition of human tryptase-beta by Lineweaver-Burke plot analysis
[5] = Binding affinity to human tryptase-beta after 3 mins
Prothrombin = Prothrombin (Bos taurus, UniProt P00735); experiment: Binding affinity to bovine thrombin after 3 mins
[6] = Binding affinity to bovine type 1 trypsin after 3 mins; set-up: species or system Bos taurus

Row | SMILES | IC50 [1] [µM] | inhibition (Homo sapiens [2]) | also measured
1 | CN1C(=O)c2ccc(OC(=O)CCc3cnc(N)nc3)cc2C1=O | 7.8 | – | –
2 | Nc1ccc(CCC(=O)Oc2ccccc2)cc1 | – | inactive | –
3 | CN1C(=O)c2ccc(OC(=O)Cc3cccc(N)c3)cc2C1=O | – | 46% | –
4 | CCCN1C(=O)c2ccc(OC(=O)CCc3ccc(N)cc3)cc2C1=O | 1.2 | – | –
5 | Cc1ccc(N2C(=O)c3ccc(OC(=O)CCc4ccc(N)cc4)cc3C2=O)cc1 | 1.2 | – | –
6 | CN1C(=O)c2ccc(OC(=O)CCc3ccncc3)cc2C1=O | > 30 | – | –
7 | Nc1ccc(CCC(=O)Oc2ccc3c(c2)C(=O)N(c2ccccc2)C3=O)cc1 | 1.3 | – | –
8 | COc1ccc(CCC(=O)Oc2ccc3c(c2)C(=O)N(C)C3=O)cc1 | – | inactive | –
9 | CCCCCCN1C(=O)c2ccc(OC(=O)CCc3ccc(N)cc3)cc2C1=O | 1.5 | – | –
10 | CN1C(=O)c2ccc(OC(=O)CCc3cccc(N)c3)cc2C1=O | – | inactive | –
11 | N#Cc1ccc(N2C(=O)c3ccc(OC(=O)CCc4ccc(N)nc4)cc3C2=O)cc1 | 0.078 | – | inhibition (Homo sapiens [3]): Dose-dependent effect; inhibition (Homo sapiens [4]): Active; Ki [5]: 0.044 µM; Ki (Prothrombin): 16 µM; Ki [6]: 0.88 µM
12 | N#Cc1ccc(N2C(=O)c3ccc(OC(=O)CCc4ccc(N)cc4)cc3C2=O)cc1 | 0.34 | – | inhibition (Homo sapiens [4]): Active; Ki [5]: 0.19 µM; Ki (Prothrombin): 8.6 µM; Ki [6]: 4.3 µM
13 | Nc1ccc(CCC(=O)Oc2ccc3c(c2)C(=O)N(c2ccc(F)cc2)C3=O)cc1 | 1.7 | – | –
14 | CN1C(=O)c2ccc(OC(=O)CCc3ccc(N(C)C)cc3)cc2C1=O | – | inactive | –
15 | COc1cc(CCC(=O)Oc2ccc3c(c2)C(=O)N(C)C3=O)ccc1N | > 30 | – | –
16 | CN1C(=O)c2ccc(OC(=O)c3ccccc3N)cc2C1=O | 1.5 | inactive | –

Row | SMILES | IC50 [1] [µM] | inhibition (Homo sapiens [2]) | also measured
17 | CC(C)(C)c1ccc(N2C(=O)c3ccc(OC(=O)CCc4ccc(N)cc4)cc3C2=O)cc1 | – | inactive | –
18 | CN1C(=O)c2ccc(OC(=O)CCc3ccc(N)cc3)cc2C1=O | 1.5 | 98% | Ki [5]: 1.7 µM; Ki (Prothrombin): 15 µM; Ki [6]: 13 µM
19 | CN1C(=O)c2ccc(OC(=O)CCCc3ccc(N)cc3)cc2C1=O | – | inactive | –
20 | COc1ccc(N2C(=O)c3ccc(OC(=O)CCc4ccc(N)cc4)cc3C2=O)cc1 | 0.39 | – | –
21 | Nc1ccc(CCC(=O)Oc2ccc3c(c2)C(=O)N(c2ccc(N)cc2)C3=O)cc1 | 0.82 | – | –
22 | COc1ccccc1N1C(=O)c2ccc(OC(=O)CCc3ccc(N)cc3)cc2C1=O | 1.1 | – | –
23 | COc1cccc(N2C(=O)c3ccc(OC(=O)CCc4ccc(N)cc4)cc3C2=O)c1 | 0.65 | – | –
24 | Nc1ccc(CCC(=O)Oc2ccc3c(c2)C(=O)N(C2CCCCC2)C3=O)cc1 | 1.2 | – | –
25 | CC(C)N1C(=O)c2ccc(OC(=O)CCc3ccc(N)cc3)cc2C1=O | 1.2 | – | –
26 | CN1C(=O)c2ccc(OC(=O)c3ccc(N)cc3)cc2C1=O | – | inactive | –
27 | Nc1ccc(CCC(=O)Oc2ccc3c(c2)C(=O)N(c2ccc(C(F)(F)F)cc2)C3=O)cc1 | – | inactive | –
28 | CN1C(=O)c2ccc(OC(=O)CCc3ccc(N)nc3)cc2C1=O | 0.4 | – | inhibition (Homo sapiens [4]): Active; Ki [5]: 0.34 µM; Ki (Prothrombin): 7 µM; Ki [6]: 2.9 µM
29 | COc1cc(N)ccc1CCC(=O)Oc1ccc2c(c1)C(=O)N(C)C2=O | 1.8 | – | –
30 | CN1C(=O)c2ccc(OC(=O)Cc3ccc(N)cc3)cc2C1=O | – | inactive | –
31 | CN1C(=O)c2ccc(OC(=O)c3cccc(N)c3)cc2C1=O | – | inactive | –
32 | CN1C(=O)c2ccc(OC(=O)CCc3ccccc3)cc2C1=O | – | inactive | –
